Experiments:
Assay in all cases: Test E pre-/postemergence greenhouse test, plant response rating 0-100
Format in all cases: in vivo
[1] = tested on: Brazilian crabgrass (Digitaria horizontalis); conditions: scale 0 to 100; for Crabgrass, Brazil plant response rating: Preemergence
In short: (§1)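 Each species was tested both preemergence, with chemicals sprayed onto freshly planted silt loam, and postemergence, on plants 2 to 18 cm tall in a peat-based medium; the vehicle was a non-phytotoxic solvent mixture with surfactant. After 14 to 21 days in the greenhouse, growth was visually compared with controls and scored 0–100.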

[2] = tested on: Italian ryegrass (Lolium multiflorum); conditions: scale 0 to 100; for Ryegrass, Italian plant response rating: Preemergence
In short: as §1

[3] = tested on: arrowleaf sida (Sida rhombifolia); conditions: scale 0 to 100; for pest or weed control at 16 g/ha: 16 g ai/ha; for pest or weed control at 31 g/ha: 31 g ai/ha; for Arrowleaf Sida plant response rating: Preemergence
In short: as §1

[4] = tested on: barnyardgrass (Echinochloa crus-galli); conditions: scale 0 to 100; for Barnyardgrass plant response rating: Preemergence
In short: as §1

corn (Zea mays) = conditions: scale 0 to 100; for Corn plant response rating: Preemergence
In short: as §1

[5] = tested on: dayflower (Virginia (VA) dayflower, Commelina virginica); conditions: scale 0 to 100; for Dayflower, VA plant response rating: Preemergence
In short: as §1

[6] = tested on: hairy beggarticks (Bidens pilosa); conditions: scale 0 to 100; for pest or weed control at 16 g/ha: 16 g ai/ha; for Beggarticks plant response rating: Preemergence
In short: as §1

[7] = tested on: palmer pigweed (Amaranthus palmeri); conditions: scale 0 to 100; for Pigweed, Palmer plant response rating: Preemergence
In short: as §1

[8] = tested on: sandbur (southern sandbur, Cenchrus echinatus); conditions: scale 0 to 100; for Sandbur plant response rating: Preemergence
In short: as §1

soybean (Glycine max) = conditions: scale 0 to 100; for Soybean plant response rating: Preemergence
In short: as §1

[9] = tested on: waterhemp (common waterhemp, Amaranthus rudis); conditions: scale 0 to 100; for pest or weed control at 31 g/ha: 31 g ai/ha; for Waterhemp plant response rating: Preemergence
In short: as §1

[10] = tested on: wild poinsettia (Euphorbia heterophylla); conditions: scale 0 to 100; for Poinsettia, Wild plant response rating: Preemergence
In short: as §1

[11] = Sida rhombifolia, post-emergence, Postemergence
[12] = Sida rhombifolia, post-emergence, Postemergence, 62 g ai/ha
[13] = Sida rhombifolia, post-emergence, Postemergence, 125 g ai/ha
[14] = Bidens pilosa, post-emergence, Postemergence
[15] = Bidens pilosa, post-emergence, Postemergence, 125 g ai/ha
[16] = Amaranthus palmeri, post-emergence, Postemergence, 62 g ai/ha
[17] = Amaranthus palmeri, post-emergence, Postemergence, 125 g ai/ha
[18] = Amaranthus tuberculatus, post-emergence, Postemergence
[19] = Amaranthus tuberculatus, post-emergence, Postemergence, 125 g ai/ha

SMILES: Clc1cc(Cl)cc(-c2n[nH]cc2C(=NN2CCCC2)c2ccccc2)c1 [Compound 30, N-[[3-(3,5-dichlorophenyl)-1H-pyrazol-4-yl]phenylmethylene]-1-pyrrolidinamine]
- pest or weed control at 16 g/ha ([1]; Digitaria horizontalis, post-emergence, Postemergence, 16 g ai/ha, read-out: Plant response rating, Crabgrass, Brazil): 0%
- pest or weed control at 31 g/ha ([1]; Digitaria horizontalis, post-emergence, Postemergence, 31 g ai/ha, read-out: Plant response rating, Crabgrass, Brazil): 0%
- pest or weed control at 62 g/ha ([1]; Digitaria horizontalis, post-emergence, Postemergence, 62 g ai/ha, read-out: Plant response rating, Crabgrass, Brazil): 0%
- pest or weed control at 125 g/ha ([1]; Digitaria horizontalis, post-emergence, Postemergence, 125 g ai/ha, read-out: Plant response rating, Crabgrass, Brazil): 0%
- pest or weed control at 250 g/ha ([1]; Digitaria horizontalis, post-emergence, Postemergence, 250 g ai/ha, read-out: Plant response rating, Crabgrass, Brazil): 0%
- pest or weed control at 31 g/ha ([2]; Lolium multiflorum, post-emergence, Postemergence, 31 g ai/ha): 0%
- pest or weed control at 62 g/ha ([2]; Lolium multiflorum, post-emergence, Postemergence, 62 g ai/ha): 0%
- pest or weed control at 125 g/ha ([2]; Lolium multiflorum, post-emergence, Postemergence, 125 g ai/ha): 0%
- pest or weed control at 250 g/ha ([2]; Lolium multiflorum, post-emergence, Postemergence, 250 g ai/ha): 5%
- pest or weed control at 16 g/ha [3, 11]: 50%
- pest or weed control at 31 g/ha [3, 11]: 50%
- pest or weed control at 62 g/ha [3, 12]: 70%
- pest or weed control at 125 g/ha [3, 13]: 80%
- pest or weed control at 250 g/ha ([3]; Sida rhombifolia, post-emergence, Postemergence, 250 g ai/ha): 80%
- pest or weed control at 16 g/ha ([4]; Echinochloa crus-galli, post-emergence, Postemergence, 16 g ai/ha): 0%
- pest or weed control at 31 g/ha ([4]; Echinochloa crus-galli, post-emergence, Postemergence, 31 g ai/ha): 0%
- pest or weed control at 62 g/ha ([4]; Echinochloa crus-galli, post-emergence, Postemergence, 62 g ai/ha): 0%
- pest or weed control at 125 g/ha ([4]; Echinochloa crus-galli, post-emergence, Postemergence, 125 g ai/ha): 0%
- pest or weed control at 250 g/ha ([4]; Echinochloa crus-galli, post-emergence, Postemergence, 250 g ai/ha): 0%
- Corn plant response rating (crop injury, 0 = no effect, 100 = complete kill) at 16 g/ha (corn (Zea mays); Zea mays, post-emergence, Postemergence, 16 g ai/ha): 0%
- Corn plant response rating (crop injury, 0 = no effect, 100 = complete kill) at 31 g/ha (corn (Zea mays); Zea mays, post-emergence, Postemergence, 31 g ai/ha): 0%
- Corn plant response rating (crop injury, 0 = no effect, 100 = complete kill) at 62 g/ha (corn (Zea mays); Zea mays, post-emergence, Postemergence, 62 g ai/ha): 0%
- Corn plant response rating (crop injury, 0 = no effect, 100 = complete kill) at 125 g/ha (corn (Zea mays); Zea mays, post-emergence, Postemergence, 125 g ai/ha): 0%
- Corn plant response rating (crop injury, 0 = no effect, 100 = complete kill) at 250 g/ha (corn (Zea mays); Zea mays, post-emergence, Postemergence, 250 g ai/ha): 0%
- pest or weed control at 16 g/ha ([5]; Commelina virginica, post-emergence, Postemergence, 16 g ai/ha): 0%
- pest or weed control at 31 g/ha ([5]; Commelina virginica, post-emergence, Postemergence, 31 g ai/ha): 0%
- pest or weed control at 62 g/ha ([5]; Commelina virginica, post-emergence, Postemergence, 62 g ai/ha): 0%
- pest or weed control at 125 g/ha ([5]; Commelina virginica, post-emergence, Postemergence, 125 g ai/ha): 0%
- pest or weed control at 250 g/ha ([5]; Commelina virginica, post-emergence, Postemergence, 250 g ai/ha): 0%
- pest or weed control at 16 g/ha [6, 14]: 80%
- pest or weed control at 125 g/ha [6, 15]: 85%
- pest or weed control at 250 g/ha ([6]; Bidens pilosa, post-emergence, Postemergence, 250 g ai/ha): 100%
- pest or weed control at 31 g/ha ([7]; Amaranthus palmeri, post-emergence, Postemergence, 31 g ai/ha): 40%
- pest or weed control at 62 g/ha [7, 16]: 100%
- pest or weed control at 125 g/ha [7, 17]: 100%
- pest or weed control at 250 g/ha ([7]; Amaranthus palmeri, post-emergence, Postemergence, 250 g ai/ha): 100%
- pest or weed control at 31 g/ha ([8]; Cenchrus echinatus, post-emergence, Postemergence, 31 g ai/ha): 0%
- pest or weed control at 62 g/ha ([8]; Cenchrus echinatus, post-emergence, Postemergence, 62 g ai/ha): 0%
- pest or weed control at 125 g/ha ([8]; Cenchrus echinatus, post-emergence, Postemergence, 125 g ai/ha): 0%
- pest or weed control at 250 g/ha ([8]; Cenchrus echinatus, post-emergence, Postemergence, 250 g ai/ha): 0%
- plant injury at 31 g/ha (soybean (Glycine max); Glycine max, post-emergence, Postemergence, 31 g ai/ha): 0%
- plant injury at 62 g/ha (soybean (Glycine max); Glycine max, post-emergence, Postemergence, 62 g ai/ha): 0%
- plant injury at 125 g/ha (soybean (Glycine max); Glycine max, post-emergence, Postemergence, 125 g ai/ha): 0%
- plant injury at 250 g/ha (soybean (Glycine max); Glycine max, post-emergence, Postemergence, 250 g ai/ha): 0%
- pest or weed control at 31 g/ha [9, 18]: 60%
- pest or weed control at 62 g/ha ([9]; Amaranthus tuberculatus, post-emergence, Postemergence, 62 g ai/ha): 70%
- pest or weed control at 125 g/ha [9, 19]: 70%
- pest or weed control at 250 g/ha ([9]; Amaranthus tuberculatus, post-emergence, Postemergence, 250 g ai/ha): 75%
- pest or weed control at 31 g/ha ([10]; Euphorbia heterophylla, post-emergence, Postemergence, 31 g ai/ha, read-out: Plant response rating, Poinsettia, Wild): 0%
- pest or weed control at 62 g/ha ([10]; Euphorbia heterophylla, post-emergence, Postemergence, 62 g ai/ha, read-out: Plant response rating, Poinsettia, Wild): 0%
- pest or weed control at 125 g/ha ([10]; Euphorbia heterophylla, post-emergence, Postemergence, 125 g ai/ha, read-out: Plant response rating, Poinsettia, Wild): 0%
- pest or weed control at 250 g/ha ([10]; Euphorbia heterophylla, post-emergence, Postemergence, 250 g ai/ha, read-out: Plant response rating, Poinsettia, Wild): 0%

SMILES: CCn1cc(C(=O)c2ccccc2)c(-c2cc(Cl)cc(Cl)c2)n1 [Compound 31, [3-(3,5-dichlorophenyl)-1-ethyl-1H-pyrazol-4-yl]phenylmethanone]
- Crabgrass, Brazil plant response rating ([1]; 62 g ai/ha): 0
- Crabgrass, Brazil plant response rating ([1]; 125 g ai/ha): 0
- Crabgrass, Brazil plant response rating ([1]; 250 g ai/ha): 0
- Crabgrass, Brazil plant response rating ([1]; 500 g ai/ha): 50
- Ryegrass, Italian plant response rating ([2]; 62 g ai/ha): 0
- Ryegrass, Italian plant response rating ([2]; 125 g ai/ha): 0
- Ryegrass, Italian plant response rating ([2]; 250 g ai/ha): 0
- Ryegrass, Italian plant response rating ([2]; 500 g ai/ha): 0
- Arrowleaf Sida plant response rating ([3]; 62 g ai/ha): 30
- Arrowleaf Sida plant response rating ([3]; 125 g ai/ha): 80
- Arrowleaf Sida plant response rating ([3]; 250 g ai/ha): 90
- Arrowleaf Sida plant response rating ([3]; 500 g ai/ha): 95
- pest or weed control at 16 g/ha [3, 11]: 55%
- pest or weed control at 31 g/ha [3, 11]: 65%
- pest or weed control at 62 g/ha [3, 12]: 80%
- pest or weed control at 125 g/ha [3, 13]: 90%
- Barnyardgrass plant response rating ([4]; 62 g ai/ha): 0
- Barnyardgrass plant response rating ([4]; 125 g ai/ha): 0
- Barnyardgrass plant response rating ([4]; 250 g ai/ha): 0
- Barnyardgrass plant response rating ([4]; 500 g ai/ha): 0
- Corn plant response rating (corn (Zea mays); 62 g ai/ha): 0
- Corn plant response rating (corn (Zea mays); 125 g ai/ha): 0
- Corn plant response rating (corn (Zea mays); 250 g ai/ha): 0
- Corn plant response rating (corn (Zea mays); 500 g ai/ha): 0
- Dayflower, VA plant response rating ([5]; 62 g ai/ha): 0
- Dayflower, VA plant response rating ([5]; 125 g ai/ha): 0
- Dayflower, VA plant response rating ([5]; 250 g ai/ha): 0
- Dayflower, VA plant response rating ([5]; 500 g ai/ha): 0
- pest or weed control at 16 g/ha [6, 14]: 70%
- pest or weed control at 31 g/ha ([6]; Bidens pilosa, post-emergence, Postemergence, 31 g ai/ha): 80%
- pest or weed control at 62 g/ha ([6]; Bidens pilosa, post-emergence, Postemergence, 62 g ai/ha): 85%
- pest or weed control at 125 g/ha [6, 15]: 85%
- Beggarticks plant response rating ([6]; 62 g ai/ha): 0
- Beggarticks plant response rating ([6]; 125 g ai/ha): 0
- Beggarticks plant response rating ([6]; 250 g ai/ha): 0
- Beggarticks plant response rating ([6]; 500 g ai/ha): 50
- pest or weed control at 62 g/ha [7, 16]: 60%
- pest or weed control at 125 g/ha [7, 17]: 75%
- Pigweed, Palmer plant response rating ([7]; 62 g ai/ha): 0
- Pigweed, Palmer plant response rating ([7]; 125 g ai/ha): 70
- Pigweed, Palmer plant response rating ([7]; 250 g ai/ha): 98
- Pigweed, Palmer plant response rating ([7]; 500 g ai/ha): 100
- Sandbur plant response rating ([8]; 62 g ai/ha): 0
- Sandbur plant response rating ([8]; 125 g ai/ha): 0
- Sandbur plant response rating ([8]; 250 g ai/ha): 0
- Sandbur plant response rating ([8]; 500 g ai/ha): 0
- Soybean plant response rating (soybean (Glycine max); 62 g ai/ha): 0
- Soybean plant response rating (soybean (Glycine max); 125 g ai/ha): 0
- Soybean plant response rating (soybean (Glycine max); 250 g ai/ha): 0
- Soybean plant response rating (soybean (Glycine max); 500 g ai/ha): 0
- pest or weed control at 31 g/ha [9, 18]: 50%
- pest or weed control at 125 g/ha [9, 19]: 60%
- Waterhemp plant response rating ([9]; 62 g ai/ha): 80
- Waterhemp plant response rating ([9]; 125 g ai/ha): 90
- Waterhemp plant response rating ([9]; 250 g ai/ha): 100
- Waterhemp plant response rating ([9]; 500 g ai/ha): 100
- Poinsettia, Wild plant response rating ([10]; 62 g ai/ha): 0
- Poinsettia, Wild plant response rating ([10]; 125 g ai/ha): 0
- Poinsettia, Wild plant response rating ([10]; 250 g ai/ha): 0
- Poinsettia, Wild plant response rating ([10]; 500 g ai/ha): 0

From patent US10167262B2, “Herbicidal substituted 3-arylpyrazoles” (FMC CORPORATION, priority 2014, dated 2019)
